The values below come from patent US4791139A, “Diphenyl ether derivatives and their use as insecticides” (Imperial Chemical Industries PLC, priority 1986, dated 1988).

As usually defined, the mortality is the percentage killed.

Structures are written as SMILES.

What all share (format): in vivo
Assay [1] deals with Tetranychus urticae (spider mites - adult). As to the kind of experiment: Contact test, spider mites - adult (TUa), French bean leaf. The settings on record: 72 h, 3 days, read-out: TUA grading of mortality. The procedure, abridged: (§1)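 Each pest was kept on its food plant or foodstuff and exposed, directly or via the medium, to 100 to 500 ppm Product in water containing 0.1% by weight wetting agent. Kill was recorded over one to seven days.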

Assay [2] deals with Tetranychus urticae (spider mites - ova). In words: Contact test, spider mites - ova (TUe), French bean leaf. The settings on record: 144 h, 6 days, read-out: TUE grading of mortality. The procedure, abridged: as §1
In assay [3] the test system is Myzus persicae (aphids). As to the kind of experiment: Contact test, aphids (MP), Chinese Cabbage leaf. The following applies: 72 h, 3 days, read-out: MP grading of mortality. An outline of the steps:
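Aphids on a host plant and/or the plant itself were treated with 100–500 ppm of product, applied from acetone diluted in water containing 0.1% SYNPERONIC NX wetting agent. Mortality was scored usually one to seven days after treatment.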

In assay [4] the test system is Nilaparvata lugens (brown plant hopper - nymphs). As to the kind of experiment: Contact test, brown plant hopper - nymphs (NL), Rice plant. The following applies: 72 h, 3 days, read-out: NL grading of mortality. The procedure, abridged: as §1
The subject of assay [5] is Musca domestica (houseflies - adults). As to the kind of experiment: Knockdown test, houseflies - adults (MD/KD), Cotton wool/sugar. The settings on record: 4 hours, read-out: MD/KD grading of knockdown. The procedure, abridged: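 Product was dissolved in acetone and diluted with water containing 0.1% wetting agent to 100–500 ppm. The flies and/or their food medium were treated with the preparation. Mortality was scored 1–7 days after treatment, with an additional knockdown assessment for houseflies.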

The test system is the same in assay [6]. As to the kind of experiment: Contact test, houseflies - adults (MD), Cotton wool/sugar. The settings on record: 24 h, 1 day, read-out: MD grading of mortality. The procedure, abridged: as §1
Assay [7] concerns Blattella germanica (cockroach nymphs). In words: Residual test, cockroach nymphs (BG), Plastic pot. The following applies: 72 h, 3 days, read-out: BG grading of mortality. An outline of the steps:
as §1

Assay [8] deals with Heliothis virescens (tobacco budworm - larvae). As to the kind of experiment: Residual test, tobacco budworm - larvae (HV), Cotton leaf. The settings on record: 72 h, read-out: HV grading of mortality. An outline of the steps:
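Products applied as acetone solutions diluted in water with 0.1% wetting agent, at 100–500 ppm; pests on host plant or food, with pests and/or medium treated. Mortality or knockdown scored 1–7 days after treatment and graded A (80–100%), B (50–79%) or C (<50%).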

The test system of assay [9] is Diabrotica balteata (rootworm larvae). As to the kind of experiment: Residual test, rootworm larvae (DB), Filter paper/maize seed. The following applies: 72 h, 3 days, read-out: DB grading of mortality. The procedure, abridged: as §1
For assay [10], the system named is Meloidogyne incognita (Tomato root knot eelworm - larvae). In words: Residual test, Tomato root knot eelworm - larvae (MI), Semi in-vitro. The settings on record: 168 h, application rate is half that recorded, 7 days, read-out: MI grading of mortality; for mortality at 250 µg/mL: rate column 500 ppm; for mortality at 125 µg/mL: rate 250 ppm.
Assay [11] deals with Chilo partellus (Maize stemborer - larvae). As to the kind of experiment: Residual test, Maize stemborer - larvae (CP), Oilseed rape. The following applies: 72 h, 3 days, read-out: CP grading of mortality. As for the experimental part:
The activity of the Product was determined using a variety of insect pests. The Product was used in the form of liquid preparations containing from 100 to 500 parts per million (ppm) by weight of the Product. The preparations were made by dissolving the Product in acetone and diluting the solutions with water containing 0.1% by weight of a wetting agent sold under the trade name "SYNPERONIC" NX until the liquid preparations contained the required concentration of the Product. "SYNPERONIC" is a Registered Trade Mark.
The test procedure adopted with regard to each pest was basically the same and comprised supporting a number of the pests on a medium which was usually a host plant or a foodstuff on which the pests feed, and treating either or both the pests and the medium with the preparations. The mortality of the pests was then assessed at periods usually varying from one to seven days after the treatment.
The results of the tests are given in Table III for each of the Products, at the rate in parts per million given in the second column as a grading of mortality designated as A, B or C wherein A indicates 80-100% mortality or knockdown (70-100% for Meloidogyne incognita), B indicates 50-79% mortality knockdown or knockdown (50-69% for Meloidogyne incognita) and C indicates less than 50% mortality or knockdown.
In Table III the pest organism used is designated by a letter code and the pests species, the support medium or food, and the type and duration of test is given in Table II.
(Maize stemborer - larvae)

In the case of `CCOc1ccc(/C(=C/CCc2cccc(Oc3ccccc3)c2)C(F)(F)F)cc1` [Compound 4, Z-1,1,1-trifluoro-2-(4-ethoxyphenyl)-5-(3-phenoxyphenyl)pent-2-ene], the mortality at 500 ppm in assay [1], in [2], in [3], in assay [4], in assay [6] and in assay [7] was below 50% throughout. The mortality at 500 ppm in [8] was 80 to 100%; in assay [9], below 50%; in assay [11] it was 80 to 100%. Moreover, in assay [5], the pest or weed control at 500 ppm is below 50%. Moreover, in assay [10], the mortality at 250 µg/mL was below 50%.

Regarding `CC(C)(C)c1ccc(C(=CCCc2cccc(Oc3ccccc3)c2)C(F)(F)F)cc1` [Compound 6, 2-[4-(2-methylprop-2-yl)phenyl]-5-(3-phenoxyphenyl)-1,1,1-trifluoropent-2-ene], the mortality at 250 ppm was below 50% in assay [1]; below 50% in [2]; below 50% in assay [3]; below 50% in [4]; below 50% in [6]; 80 to 100% in assay [7]. Moreover, the mortality at 250 ppm in assay [8] was below 50%; in assay [9], below 50%; in assay [11], 80 to 100%. Also, in assay [5], the pest or weed control at 250 ppm was below 50%. The mortality at 125 µg/mL in assay [10] was 70 to 100%.

`FC(F)(F)Oc1ccc(C(=CCCc2cccc(Oc3ccccc3)c2)C(F)(F)F)cc1` [Compound 7, 5-(3-phenoxyphenyl)-2-(4-trifluoromethoxyphenyl)-1,1,1-trifluoropent-2-ene]: the mortality at 250 ppm fell in the range of 80 to 100% in assay [1]; 80 to 100% in assay [2]; 80 to 100% in assay [3]; 80 to 100% in assay [4]; 50 to 79% in [6]; 80 to 100% in [7]. The mortality at 250 ppm in assay [8], in [9] and in assay [11] was 80 to 100% each time. Moreover, the pest or weed control at 250 ppm in assay [5] is below 50%. Moreover, the mortality at 125 µg/mL in assay [10] is below 50%.

On to `CCOc1ccc(C(=CCCc2cccc(Oc3ccccc3)c2)C(F)(F)C(F)(F)F)cc1` [Compound 10, 3-(4-ethoxyphenyl)-1,1,1,2,2-pentafluoro-6-(3-phenoxyphenyl)hex-3-ene], for which the mortality at 250 ppm is below 50% in [1]; below 50% in assay [2]; below 50% in [3]; below 50% in assay [4]; below 50% in assay [6]; 50 to 79% in assay [7]. Also, the mortality at 250 ppm in assay [8], in [9] and in [11] was below 50% throughout. Also, in assay [5], the pest or weed control at 250 ppm was below 50%. In addition, the mortality at 125 µg/mL in assay [10] is below 50%.

Take `CCOc1ccc(/C(=C\C=Cc2ccc(F)c(Oc3ccccc3)c2)C(F)(F)F)cc1` [Compound 12, 1,1,1-trifluoro-2-(4-ethoxyphenyl)-5-(4-fluoro-3-phenoxyphenyl)penta-2,4-diene]: the mortality at 500 ppm in assay [1] was below 50%; in [2], below 50%; in assay [3], below 50%; in [4], 80 to 100%; in assay [6] it was 80 to 100%; in [7], 80 to 100%. Further, the mortality at 500 ppm in assay [8], in assay [9] and in [11] was 80 to 100% each time. Also, in assay [5], the pest or weed control at 500 ppm was 80 to 100%. In addition, in [10], the mortality at 250 µg/mL is 70 to 100%.

For the compound `FC(F)(F)C(=CCCc1cccc(Oc2ccccc2)c1)c1ccc(C(F)(F)F)cc1` [Compound 15, 5-(3-phenoxyphenyl)-1,1,1-trifluoro-2-(4-trifluoromethylphenyl)pent-2-ene], the mortality at 250 ppm in [1] is 50 to 79%; in assay [2], below 50%; in assay [3], below 50%; in assay [4] it was below 50%; in [6] it was below 50%; in assay [7], 80 to 100%. Further, the mortality at 250 ppm in [8] is 80 to 100%; in [9], below 50%; in assay [11] it was 80 to 100%. Besides, the pest or weed control at 250 ppm in [5] is below 50%. The mortality at 125 µg/mL in assay [10] was below 50%.

`CCOc1ccc(C(CC=Cc2cccc(Oc3ccccc3)c2)C(F)(F)F)cc1` (centres unmarked) [Compound 31, 1,1,1-trifluoro-2-(4-ethoxyphenyl)-5-(3-phenoxyphenyl)pent-4-ene]: the mortality at 250 ppm in [1] was below 50%; in assay [2] it was below 50%; in assay [3], 80 to 100%; in assay [4], 80 to 100%; in [6], 80 to 100%; in assay [7], 80 to 100%. Moreover, the mortality at 250 ppm in assay [8], in assay [9] and in assay [11] was 80 to 100% throughout. Further, the pest or weed control at 250 ppm in assay [5] lay within 80 to 100%. Moreover, the mortality at 125 µg/mL in [10] was below 50%.

For the compound `CCOc1ccc(C(CC=Cc2ccc(F)c(Oc3ccccc3)c2)C(F)(F)F)cc1` (centres unmarked) [Compound 32, 1,1,1-Trifluoro-2-(4-ethoxyphenyl)-5-(4-fluoro-3-phenoxyphenyl)pent-4-ene], the mortality at 250 ppm in assay [1] was 50 to 79%; in [2], below 50%; in assay [3], 80 to 100%; in [4], 80 to 100%; in assay [6], 80 to 100%; in assay [7], 80 to 100%. Further, the mortality at 250 ppm in assay [8], in assay [9] and in [11] was 80 to 100% in each case. Further, the pest or weed control at 250 ppm in [5] lay in the range of 80 to 100%. Moreover, the mortality at 125 µg/mL in assay [10] was below 50%.

On to `CCOc1ccc(C(C/C=C/c2cccc(Oc3ccccc3)c2)C(F)(F)F)cc1` (centres unmarked) [Compound 34, 1,1,1-trifluoro-2-(4-ethoxyphenyl)-5-(3-phenoxyphenyl)pent-4-ene], for which the mortality at 250 ppm in assay [1] was below 50%; in assay [2], below 50%; in assay [3] it was 80 to 100%; in assay [4], below 50%; in [6], below 50%; in assay [7], below 50%. For the same compound, the mortality at 250 ppm in assay [8] is below 50%; in [9], below 50%; in [11], 80 to 100%. The pest or weed control at 250 ppm in [5] is below 50%. The mortality at 125 µg/mL in assay [10] was 70 to 100%.

Take `CCOc1ccc(C(C/C=C\c2cccc(Oc3ccccc3)c2)C(F)(F)F)cc1` (centres unmarked) [Compound 35, 1,1,1-trifluoro-2-(4-ethoxyphenyl)-5-(3-phenoxyphenyl)pent-4-ene]: the mortality at 250 ppm was 80 to 100% in [1]; below 50% in assay [2]; 80 to 100% in assay [3]; 80 to 100% in assay [4]; 80 to 100% in [6]; 80 to 100% in assay [7]. Also, the mortality at 250 ppm in assay [8], in assay [9] and in assay [11] was 80 to 100% throughout. Further, the pest or weed control at 250 ppm in assay [5] lay in the range of 80 to 100%. In assay [10], the mortality at 125 µg/mL was below 50%.
